Columns and labels:
[1] = target: T1, GIRK1 (Kir3.1/3.4) potassium channel (Homo sapiens, UniProt P48544+P48549); test: Automated planar patch-clamp, GIRK current in HEK cells; assay type: cell-based; conditions: HEK cells (abstract)
T1 construct: host or cells: HEK293
T1 sequence (P48549 1-501): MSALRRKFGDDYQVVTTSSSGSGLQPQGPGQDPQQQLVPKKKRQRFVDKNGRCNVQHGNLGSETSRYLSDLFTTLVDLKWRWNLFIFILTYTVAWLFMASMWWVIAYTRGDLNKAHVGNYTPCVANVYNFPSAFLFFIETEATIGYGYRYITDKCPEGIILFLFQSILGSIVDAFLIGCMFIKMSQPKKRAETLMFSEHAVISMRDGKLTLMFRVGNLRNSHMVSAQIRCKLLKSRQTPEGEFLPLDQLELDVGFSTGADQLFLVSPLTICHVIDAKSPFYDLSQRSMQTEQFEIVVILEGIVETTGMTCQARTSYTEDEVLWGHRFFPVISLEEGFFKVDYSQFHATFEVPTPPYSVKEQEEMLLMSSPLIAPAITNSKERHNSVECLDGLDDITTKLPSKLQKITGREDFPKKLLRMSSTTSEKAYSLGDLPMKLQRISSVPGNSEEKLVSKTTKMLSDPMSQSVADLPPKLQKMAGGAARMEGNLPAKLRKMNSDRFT
T1 sequence (P48544 1-419): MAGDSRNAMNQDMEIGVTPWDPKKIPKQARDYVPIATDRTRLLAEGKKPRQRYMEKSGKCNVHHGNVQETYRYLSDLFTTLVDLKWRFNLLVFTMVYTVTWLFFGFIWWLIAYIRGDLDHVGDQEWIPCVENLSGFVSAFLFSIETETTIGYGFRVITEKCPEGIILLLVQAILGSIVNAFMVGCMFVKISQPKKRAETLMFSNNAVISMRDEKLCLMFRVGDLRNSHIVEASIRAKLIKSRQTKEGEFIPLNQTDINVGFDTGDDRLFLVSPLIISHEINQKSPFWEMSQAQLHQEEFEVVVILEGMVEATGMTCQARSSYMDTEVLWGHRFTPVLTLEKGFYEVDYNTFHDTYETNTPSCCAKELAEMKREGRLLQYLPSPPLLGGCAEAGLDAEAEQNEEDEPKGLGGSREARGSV
Excerpt: Inhibition of the hERG channel, the pore forming α-subunit of the native IKr cardiac potassium channel, is expected to prolong repolarization both in the atria and in the ventricles. The GIRK channel is the pore forming α-subunit of the acetylcholine-activated potassium channel and plays an important role in atrial electrophysiology. Its inhibition can be expected to decrease the acetylcholine-activated potassium current (IKACh), a current that plays an important role in the pathogenesis of AF. Therefore, the effects of SZV-2649 on the hERG and GIRK ion channels were studied by the planar patch-clamp technique in mammalian HEK cell lines stably expressing these channels.
The currents conducted by the hERG and GIRK channels were measured by using planar patch-clamp technology[,[47],[68] in the whole-cell configuration with a four-channel medium-throughput fully automated patch-clamp platform (Patchliner Quattro, Nanion Technologies GmbH, Munich, Germany) with integrated temperature control. […]
For GIRK current measurements (see Fig. 2.), the internal solution was (in mM): K-gluconate 40, NaCl 20, KF 60, EGTA 20 and HEPES 10 (pH 7.2, KOH) supplemented with 0.9 mM GTP before experiments to induce channel activation. […] The invard currents were calculated from the − 140 mV segment. […]

[2] = test system: conscious dogs; test: Basic ECG parameters in conscious dogs; assay type: in vivo, dog
Procedure: The effects of SZV-2649 on the basic ECG parameters in conscious dogs were investigated. […] Beagle dogs of either sex weighing 12–14 kg were used for the experiments. ECG measurements were taken in conscious animals using the standard I-III leads. QTc was calculated using the Van de Water’s formula[61]. SZV-2649 (10 mg/kg) was applied by i.v. or oral administration.

[3] = intravenous 10 mg/kg, 30 min after administration, n = 6
[4] = per os 10 mg/kg, 1 h after administration, n = 7

CC(N)COc1c(I)cc(C#N)cc1I.Cl (centres unmarked) [SZV-2649, 4-(2-aminopropoxy)-3,5-diiodobenzonitrile hydrochloride]
IC50 [1]: 529 nM | PQ [2, 3]: 150.6 ± 15.8 ms | QRS [2, 3]: 52.2 ± 3.2 ms | QT [2, 3]: 234.5 ± 5.6 ms | RR [2, 3]: 756.1 ± 29.4 ms | QTC ([2]; intravenous 10 mg/kg, 30 min after administration, n = 6, Van de Water's formula): 255.7 ± 6.3 ms | PQ [2, 4]: 119.8 ± 7.5 ms | QRS [2, 4]: 47.9 ± 2.4 ms | QT [2, 4]: 215.0 ± 7.5 ms | RR [2, 4]: 596.2 ± 44.0 ms | QTC ([2]; per os 10 mg/kg, 1 h after administration, n = 7, Van de Water's formula): 250.1 ± 7.0 ms

From article PMC11455950, “Effects of SZV-2649, a new multiple ion channel inhibitor mexiletine analogue” (Scientific Reports, 2024)
